Here are results for seven compounds from ChEMBL document CHEMBL1201862, “PubChem BioAssay data set” (2004).

Molecules are shown by their SMILES.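 Following 48 hours of exposure in 96-well plates, responses at five concentrations were used to interpolate endpoints linearly. At the GI50, growth is halved.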 Active and inactive are the calls of the source. No stated cut-off is given here; in the data, active = GI50 up to about 1.1 µM and inactive = higher. A value given as a limit tells only on which side of the number the result lay.

Test systems include IGROV-1; UO-31; SK-MEL-2; SK-MEL-5; SK-MEL-28; COLO 205; T47D; MDA-MB-231; LOX IMVI; HT-29; 786-0; OVCAR-8; MDA-MB-435; RPMI-8226; PC-3; CAKI-1; SR; K562; RXF 393.
Common to all, as to test: inhibition of tumour cell growth, NCI panel, 48 h

Take `O=[N+]([O-])c1ccc(S(=O)(=O)Cc2ccccc2)c2nonc12`: the GI50 in the test on IGROV-1 was 18.8 µM (inactive); in the test with UO-31, 29.2 µM (inactive); in the test on SK-MEL-2 it was 19.3 µM (inactive); in the test on SK-MEL-5 it was 18.5 µM (inactive); in the test with SK-MEL-28 it was 20.5 µM (inactive); with COLO 205, 16.4 µM (inactive). Moreover, the GI50 in the test with T47D is 18.9 µM (inactive); in the test with MDA-MB-231, 22.5 µM (inactive); in the test on LOX IMVI, 19.2 µM (inactive); in the test on HT-29, 18.7 µM (inactive); in the test on 786-0, 19.6 µM (inactive); in the test on OVCAR-8 it was 22.1 µM (inactive). In addition, the GI50 is 19.2 µM (inactive) with MDA-MB-435; 25.1 µM (inactive) in the test on RPMI-8226; 17.8 µM (inactive) in the test on PC-3; 20.1 µM (inactive) in the test on CAKI-1; 24.2 µM (inactive) with SR; 26.6 µM (inactive) in the test with K562. Also, in the test with RXF 393, the GI50 was 17.7 µM (inactive).

In the case of `N#CC(C#N)=Cn1c(=S)[nH]c2ccccc21`, the GI50 in the test with IGROV-1, in the test on UO-31, in the test on SK-MEL-2, in the test with SK-MEL-5, in the test on SK-MEL-28 and in the test on COLO 205 was > 100 µM (inactive) each time. For the same compound, the GI50 in the test with T47D, in the test on MDA-MB-231, in the test with LOX IMVI, with HT-29, with 786-0 and with OVCAR-8 was > 100 µM (inactive) in each case. Further, the GI50 in the test on MDA-MB-435, in the test on RPMI-8226, in the test on PC-3, in the test with CAKI-1, with SR and in the test on K562 was > 100 µM (inactive) in each case. The GI50 with RXF 393 was > 100 µM (inactive).

As for `CCCCCCCCCCCC(=O)N(CCCCCCCCC)CC(O)C(O)C(OC1OC(CO)C(O)C(O)C1O)C(O)CO` (stereo not drawn), the GI50 in the test with IGROV-1 is 18.3 µM (inactive); in the test on UO-31, 17 µM (inactive); with SK-MEL-2, 19.7 µM (inactive); with SK-MEL-5, 17.4 µM (inactive); in the test with SK-MEL-28, 19.2 µM (inactive); in the test on COLO 205 it was 20.7 µM (inactive). Moreover, the GI50 with T47D was 20.5 µM (inactive); in the test with MDA-MB-231, 26 µM (inactive); in the test on LOX IMVI, 20.9 µM (inactive); with HT-29, 19.2 µM (inactive); in the test on 786-0, 17.5 µM (inactive); in the test on OVCAR-8, 20.6 µM (inactive). Further, the GI50 with MDA-MB-435 is 17.7 µM (inactive); with RPMI-8226, 34 µM (inactive); in the test on PC-3, 19.2 µM (inactive); in the test with CAKI-1 it was 20.7 µM (inactive); in the test on SR, 24.7 µM (inactive); in the test on K562 it was 26.9 µM (inactive). In the test with RXF 393, the GI50 was 20.7 µM (inactive).

In the case of `ClC1=C(Cl)C(Cl)(Cl)SS1`, the GI50 is > 7 µM (inactive) in the test on IGROV-1; > 4.47 µM (inactive) with UO-31; > 10 µM (inactive) in the test with SK-MEL-2; > 7.01 µM (inactive) in the test with SK-MEL-5; > 10 µM (inactive) with SK-MEL-28; 1.98 µM (inactive) in the test with COLO 205. Further, the GI50 with T47D is 4.79 µM (inactive); with MDA-MB-231, > 10 µM (inactive); with LOX IMVI, > 4.15 µM (inactive); with HT-29 it was > 10 µM (inactive); with 786-0, > 4.41 µM (inactive); with OVCAR-8 it was > 6.41 µM (inactive). Also, the GI50 is > 10 µM (inactive) in the test on MDA-MB-435; 3.44 µM (inactive) in the test with RPMI-8226; > 10 µM (inactive) in the test on PC-3; 2.96 µM (inactive) in the test on CAKI-1; 1.73 µM (inactive) with SR; 3.17 µM (inactive) in the test on K562. Also, the GI50 in the test on RXF 393 was > 10 µM (inactive).

For `COC1OC(COC(=O)c2cc(O)c(O)c(O)c2)C(OC(=O)c2cc(O)c(O)c(O)c2)C(OC(=O)c2cc(O)c(O)c(O)c2)C1OC(=O)c1cc(O)c(O)c(O)c1` (stereo not drawn), the GI50 is 27.4 µM (inactive) with IGROV-1; 17.1 µM (inactive) in the test with UO-31; > 100 µM (inactive) in the test on SK-MEL-2; 13.3 µM (inactive) with SK-MEL-5; > 100 µM (inactive) in the test with SK-MEL-28; 39.4 µM (inactive) in the test with COLO 205. The GI50 is 52.4 µM (inactive) with T47D; 26.2 µM (inactive) in the test on MDA-MB-231; 13.5 µM (inactive) in the test on LOX IMVI; 33.5 µM (inactive) in the test with HT-29; 13.3 µM (inactive) in the test with 786-0; 27.2 µM (inactive) with OVCAR-8. Besides, the GI50 in the test on MDA-MB-435 was 12.9 µM (inactive); in the test with RPMI-8226, 28.3 µM (inactive); with PC-3, 50.7 µM (inactive); in the test on CAKI-1 it was 41.4 µM (inactive); with SR it was 11.1 µM (inactive); in the test on K562, 21.5 µM (inactive). In the test on RXF 393, the GI50 is 64.1 µM (inactive).

As to `CN(C)/C=N/S(=O)(=O)c1nn2c(C=O)c(-c3cc4ccccc4oc3=O)nc2s1`, the GI50 is 9.4 µM (inactive) in the test on IGROV-1; 1.51 µM (inactive) in the test on UO-31; 11.9 µM (inactive) in the test on SK-MEL-2; 2.77 µM (inactive) with SK-MEL-5; 2.38 µM (inactive) in the test with SK-MEL-28; 1.91 µM (inactive) in the test with COLO 205. In addition, the GI50 in the test with T47D is 4.09 µM (inactive); in the test with MDA-MB-231, 10.7 µM (inactive); in the test on LOX IMVI it was 2.65 µM (inactive); in the test on HT-29, 0.918 µM (active); in the test with 786-0 it was 1.92 µM (inactive); with OVCAR-8 it was 3.72 µM (inactive). In addition, the GI50 with MDA-MB-435 was 5.25 µM (inactive); in the test on RPMI-8226, 1.39 µM (inactive); in the test on PC-3, 12.4 µM (inactive); in the test with CAKI-1, 1.75 µM (inactive); in the test on SR it was 5.73 µM (inactive); in the test on K562, 1.58 µM (inactive). Besides, in the test on RXF 393, the GI50 is 2.58 µM (inactive).

In the case of `O=C1/C(=C/c2ccc(F)cc2)CNC/C1=C\c1ccc(F)cc1`, the GI50 in the test on IGROV-1 is 0.667 µM (active); in the test with UO-31, 1.81 µM (inactive); in the test on SK-MEL-2 it was 12 µM (inactive); with SK-MEL-5 it was 1.42 µM (inactive); in the test with SK-MEL-28, 1.05 µM (active); with COLO 205, 1.44 µM (inactive). Moreover, the GI50 in the test on T47D is 3.37 µM (inactive); in the test on MDA-MB-231, 2.39 µM (inactive); in the test with LOX IMVI, 0.63 µM (active); with HT-29, 0.664 µM (active); with 786-0, 0.762 µM (active); in the test with OVCAR-8, 2.07 µM (inactive). Further, the GI50 with MDA-MB-435 is 2.49 µM (inactive); with RPMI-8226, 0.275 µM (active); in the test on PC-3, 1.79 µM (inactive); in the test with CAKI-1, 1.12 µM (inactive); in the test on SR it was 0.305 µM (active); in the test on K562 it was 0.245 µM (active). Moreover, the GI50 with RXF 393 is 1.82 µM (inactive).
